Data set [1] concerns the target T1, human CRF2a receptor (Homo sapiens, UniProt Q13324).
T1 construct: expressed in transfected cells; host or cells: TeloHEAC cells
T1 sequence (Q13324 1-411): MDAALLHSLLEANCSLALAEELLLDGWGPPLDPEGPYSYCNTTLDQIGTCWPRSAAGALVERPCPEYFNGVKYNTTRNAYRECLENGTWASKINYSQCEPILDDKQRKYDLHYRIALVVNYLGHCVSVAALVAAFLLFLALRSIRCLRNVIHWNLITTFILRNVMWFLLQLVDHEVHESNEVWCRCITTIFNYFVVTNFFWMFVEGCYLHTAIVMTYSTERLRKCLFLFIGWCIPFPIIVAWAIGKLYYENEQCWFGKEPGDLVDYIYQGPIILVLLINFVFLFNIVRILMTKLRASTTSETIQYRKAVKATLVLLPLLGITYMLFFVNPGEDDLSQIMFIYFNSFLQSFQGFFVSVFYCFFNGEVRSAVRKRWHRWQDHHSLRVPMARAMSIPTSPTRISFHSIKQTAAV
Nature of the data set: Activity at human CRF2a receptor, cAMP functional assay in TeloHEAC cells. It is filed as cell-based. As to conditions: TeloHEAC cells stably expressing human CRF2a receptor, relative to urocortin 2 (100 nM = 100%). Put shortly: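 TeloHEAC cells stably expressing human CRF2a (10000 cells/well, suspended in HBSS/20 mM HEPES with 2 mM IBMX) were exposed to compounds for 30 min at 37 °C. cAMP was read as the 665/620 nm fluorescence ratio after 1 h at room temperature. EC50 was derived relative to 100 nM urocortin 2, set as 100%.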

The target of data set [2] is T2, CFR1R receptor (Homo sapiens, UniProt P34998).
T2 construct: host or cells: CHO-K1 (clone 2)
T2 sequence (P34998 24-415): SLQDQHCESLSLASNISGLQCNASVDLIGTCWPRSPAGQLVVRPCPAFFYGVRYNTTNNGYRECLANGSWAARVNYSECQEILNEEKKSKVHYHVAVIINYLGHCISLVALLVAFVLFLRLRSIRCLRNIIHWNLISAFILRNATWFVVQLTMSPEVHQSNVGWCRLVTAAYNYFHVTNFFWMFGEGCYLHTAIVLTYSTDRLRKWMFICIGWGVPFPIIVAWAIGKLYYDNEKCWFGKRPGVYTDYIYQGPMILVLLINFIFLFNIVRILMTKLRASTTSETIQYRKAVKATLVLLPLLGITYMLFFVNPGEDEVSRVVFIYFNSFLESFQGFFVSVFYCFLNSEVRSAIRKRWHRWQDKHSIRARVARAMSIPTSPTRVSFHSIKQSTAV
Nature of the data set: Activity at anti-target CFR1R receptor, cAMP assay in CRF1R-overexpression CHO-K1 cells. It is filed as cell-based. As to conditions: 100% = Sauvagine at 100 nM; for pEC50: cAMP. Put shortly:
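The method mirrors that used with TeloHAEC cells. Here, thawed clone 2 cells seeded at 4000 cells/well are tested, and 100 nM Sauvagine sets the top of the activation scale.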

The nature of data set [3]: In vitro plasma stability, human plasma. It is filed as in vitro ADME. Set-up: dose or concentration left out as unconfirmed. Conditions: Human PLM, 37° C.
Experimental: (§1) In vitro plasma metabolic stability was studied in male Sprague Dawley rats and human. Test compounds were incubated at 3 M for 2 hours at 37° C. At each time point (0, 0.25, 1 and 2 h), samples were prepared for analysis by means of a single step protein precipitation technique by adding 150 μL of ethanol, 0.1% formic acid to 50 μL aliquots of plasma. Samples were mixed by vortex for homogeneity and then subjected to centrifugation at 14000 rpm for 15 min. The supernatant (100 μL) was collected, diluted with 100 μL of water, 0.1% formic acid and analyzed by LC-HRMS (TripleTOF 6600+, AB Sciex). For each test compound, the area ratios at each time point were compared to the 0 h area ratio and converted to a percentage remaining.
The nature of data set [4]: In vitro plasma stability, rat plasma. It is filed as in vitro ADME. As to conditions: male, Sprague Dawley, plasma; Rat PLM, 37° C. The arrangement: remaining at 2 h: dose or concentration left out as unconfirmed.
Experimental: as §1
The nature of data set [5]: In vitro subcutaneous tissue supernatant (SCts) stability and metabolite identification, rat. It is filed as in vitro ADME. The arrangement: remaining at 2 h: dose or concentration left out as unconfirmed. Conditions: male, Sprague Dawley; rat subcutaneous tissue supernatant (SCts), 37° C, 2 h.
The nature of data set [6]: Chemical stability in buffer (pH 7.4 / pH 4.5), % purity loss. It is filed as physicochemical. As to conditions: 100 mM phosphate buffer pH 7.4; 40° C. vs 5° C.; 14 or 28 days. Put shortly:
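LC-UV gave % loss after 14 or 28 days of storage at 5 °C or 40 °C. Samples were diluted supernatants from compound incubated 1 h at room temperature at 10 mg/mL target, in 100 mM acetate pH 4.5 or 100 mM phosphate pH 7.4.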

For data set [7], the system named is Sprague Dawley rats. Nature of the data set: Effect on systolic blood pressure, telemetry in Sprague Dawley rats. Type of data set: in vivo, rat. As to conditions: 0.1 mg/kg SC. Put shortly:
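Values are % change from a 1 h pre-dose baseline in systolic pressure, tracked by telemetry for up to 48 hours after a single 0.1 mg/kg subcutaneous dose. Rats (Sprague Dawley, n=2 per peptide) carried aortic catheters and recovered at least 10 days post-surgery; duration of action marks the last time point still showing an effect.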

A short description of data set [8]: in vitro. Conditions: dog, plasma. The arrangement: dose or concentration left out as unconfirmed.
Data set [9] is described as follows: Pharmacokinetics in male Sprague Dawley rats after subcutaneous administration. Type of data set: in vivo. As to conditions: plasma, rat, IV, 0.05 mg/kg.

pEC50: −log10 of the molar value. *1 amine or outer side, *2 acyl side, *3 side chain or, on linkers, in order; H or OH if unused. Where a SMILES comes first, the peptide text is derived from it. Side-chain parts run from the residue outwards. [ ]: non-standard residue; d: D form. The star is where a group is joined. C20 diacid = O=C(O)CCCCCCCCCCCCCCCCCCC(=O)*; γGlu = O=C(O)[C@H](CCC(=O)[*:2])N[*:1]; NMeI = CC[C@H](C)[C@H](NC)C(=O)O; AEEA = NCCOCCOCC(=O)O; Aib = CC(C)(N)C(=O)O

One may read the pEC50 as the EC50 on a negative log10 scale, so that one unit is a factor of ten. As usually defined, the AUC(0-t) is exposure summed from dosing to a finite time, without extrapolation to infinity. As a reminder, the half-life is the time in which the quantity being followed falls by half.

Take `CC[C@H](C)[C@H](NC(C)=O)C(=O)N[C@H](C(=O)N[C@@H](CC(C)C)C(=O)N[C@@H](CO)C(=O)N[C@@H](CC(C)C)C(=O)N[C@@H](CC(=O)O)C(=O)N[C@@H](C(=O)N1CCC[C@H]1C(=O)N[C@H](C(=O)N[C@@H](CCCCN)C(=O)N[C@@H](CC(C)C)C(=O)N[C@@H](CCCCNC(=O)CC[C@H](NC(=O)CCCCCCCCCCCCCCCCCCC(=O)O)C(=O)O)C(=O)N[C@@H](CCCCN)C(=O)N[C@H](C(=O)N[C@@H](CC(C)C)C(=O)N[C@@H](CC(C)C)C(=O)N[C@@H](CCC(=O)O)C(=O)N[C@@H](CCC(N)=O)C(=O)N[C@@H](CCC(=O)O)C(=O)N[C@@H](CCCCN)C(=O)N[C@@H](CCC(N)=O)C(=O)N[C@@H](CCCCN)C(=O)N[C@@H](CCC(=O)O)C(=O)N[C@@H](CCC(N)=O)C(=O)N[C@@H](CCCNC(=N)N)C(=O)N[C@@H](CCC(=O)O)C(=O)N[C@@H](CCC(N)=O)C(=O)N[C@@H](C)C(=O)N[C@@H](CCC(=O)O)C(=O)N[C@H](C(=O)N[C@@H](CC(N)=O)C(=O)NC(C)(C)C(=O)N[C@@H](CCC(N)=O)C(=O)N[C@H](C(=O)N[C@@H](CC(C)C)C(=O)N[C@@H](C)C(=O)N[C@@H](CCC(N)=O)C(=O)N[C@H](C(N)=O)C(C)C)[C@@H](C)CC)[C@@H](C)O)[C@@H](C)CC)[C@@H](C)CC)C(C)C)C(C)C` [compound 213] (Ac-IVLSLD[dV]PIKLK([γGlu-C20 diacid])KILLEQEKQKEQREQAETN[Aib]QILAQV-NH2): the pEC50 is 9.66 in data set [1] and below 6.60 in data set [2]. In addition, in data set [2], the “Emax (% I)” value turned out to be 27 % I. Further, the amount remaining at 2 h in data set [3] stood at 99%; in [4] it was 99%; in data set [5], 74%; in data set [8], 102%. In data set [6], the “Buffer stability pH 7.4 % purity loss” value is given as −0.1/Not Tested %. Also, in data set [7] (8 h, n=2), the “Systolic blood pressure (Mean) % change from baseline, 8 h” value is on record as −10%. In addition, the “Systolic blood pressure (Mean) % change from baseline, 12 h” value in data set [7] (12 h, n=2) was −18%. Also, in data set [7] (24 h, n=2), the “Systolic blood pressure (Mean) % change from baseline, 24 h” value is recorded as −13%. The compound further yielded a Duration of action in data set [7] (last time point with an effect on BP still observed) above 24 h.

Turning to `CC[C@H](C)[C@H](NC)C(=O)N[C@H](C(=O)N[C@@H](CC(C)C)C(=O)N[C@@H](CO)C(=O)N[C@@H](CC(C)C)C(=O)N[C@@H](CC(=O)O)C(=O)N[C@@H](C(=O)N1CCC[C@H]1C(=O)N[C@H](C(=O)N[C@@H](CCCCN)C(=O)N[C@@H](CC(C)C)C(=O)N[C@@H](CCCCNC(=O)COCCOCCNC(=O)COCCOCCNC(=O)CC[C@H](NC(=O)CCCCCCCCCCCCCCCCCCC(=O)O)C(=O)O)C(=O)N[C@@H](CCCCN)C(=O)N[C@H](C(=O)N[C@@H](CC(C)C)C(=O)N[C@@H](CC(C)C)C(=O)N[C@@H](CCC(=O)O)C(=O)N[C@@H](CCC(N)=O)C(=O)N[C@@H](CCC(=O)O)C(=O)N[C@@H](CCCCN)C(=O)N[C@@H](CCC(N)=O)C(=O)N[C@@H](CCCCN)C(=O)N[C@@H](CCC(=O)O)C(=O)N[C@@H](CCC(N)=O)C(=O)N[C@@H](CCCNC(=N)N)C(=O)N[C@@H](CCC(=O)O)C(=O)N[C@@H](CCC(N)=O)C(=O)N[C@@H](C)C(=O)N[C@@H](CCC(=O)O)C(=O)N[C@H](C(=O)N[C@@H](CC(N)=O)C(=O)NC(C)(C)C(=O)N[C@@H](CCC(N)=O)C(=O)N[C@H](C(=O)N[C@@H](CC(C)C)C(=O)N[C@@H](C)C(=O)N[C@@H](CCC(N)=O)C(=O)N[C@H](C(N)=O)C(C)C)[C@@H](C)CC)[C@@H](C)O)[C@@H](C)CC)[C@@H](C)CC)C(C)C)C(C)C` [compound 237] (H-[NMeI]VLSLD[dV]PIKLK([AEEA-AEEA-γGlu-C20 diacid])KILLEQEKQKEQREQAETN[Aib]QILAQV-NH2), the pEC50 is 9.39 in data set [1] and below 6.60 in data set [2]. In addition, the “Emax (% I)” value in [2] amounted to 6 % I. The amount remaining at 2 h in data set [3] worked out at 83%; in [4] it was 84%; in data set [5], 60%; in [8], 86%. The “Buffer stability pH 7.4 % purity loss” value in [6] is on record as 0.0/Not Tested %. In data set [9], the AUC(0-t) worked out at 4160 ng·h/mL. In [9], this compound showed a half-life of 11 h.

These data come from patent US20260001928A1 (CORTERIA PHARMACEUTICALS, priority 2022, published 2026).
